# According to patent publication US4032659A (priority 1975, dated 1977):
# Entries after “also recorded” stand apart in the source; their conditions may differ. Structures can show the parent of a compound that is named as a salt.
# Test system: Influenza Ann Arbor virus
# Assay: Chemoprophylaxis of Influenza Ann Arbor (A1) virus infection in mice
# Format: in vivo, mouse
# [1] = subcutaneous, total dose .003 μg
compound,measurement,setting,value
"NC(N)=NN=Cc1c(Cl)cccc1Cl [[(2,6-dichlorobenzylidine)amino]guanidine acetate]",No. animals surviving after 6 days,"oral, total dose 30 pg",4
same,Survivors,"oral, total dose 30 pg",0
same,No. animals surviving after 6 days,"oral, total dose 300 pg",2
same,Survivors,"oral, total dose 300 pg",1
same,No. animals surviving after 6 days,"oral, total dose 3 ng",4
same,Survivors,"oral, total dose 3 ng",0
same,No. animals surviving after 6 days,"oral, total dose 30 ng",1
same,Survivors,"oral, total dose 30 ng",0
same,No. animals surviving after 6 days,"oral, total dose 300 ng",1
same,Survivors,"oral, total dose 300 ng",0
same,No. animals surviving after 6 days,"oral, total dose 3 μg",2
same,Survivors,"oral, total dose 3 μg",0
same,No. animals surviving after 6 days,"oral, total dose 30 μg",3
same,Survivors,"oral, total dose 30 μg",0
same,No. animals surviving after 6 days,"oral, total dose 300 μg",1
same,Survivors,"oral, total dose 300 μg",0
same,Toxicity,"oral, total dose 3 mg",Toxic
NC(N)=S [Thiourea],No. animals surviving after 7 days,"oral, total dose 30 pg",2
same,Survivors,"oral, total dose 30 pg",0
same,No. animals surviving after 7 days,"oral, total dose 300 pg",4
same,Survivors,"oral, total dose 300 pg",0
same,No. animals surviving after 7 days,"oral, total dose 3 ng",3
same,Survivors,"oral, total dose 3 ng",1
same,No. animals surviving after 7 days,"oral, total dose 30 ng",4
same,Survivors,"oral, total dose 30 ng",0
same,No. animals surviving after 7 days,"oral, total dose 300 ng",2
same,Survivors,"oral, total dose 300 ng",0
same,No. animals surviving after 7 days,"oral, total dose 3 μg",7
same,Survivors,"oral, total dose 3 μg",0
same,No. animals surviving after 7 days,"oral, total dose 30 μg",3
same,Survivors,"oral, total dose 30 μg",0
same,No. animals surviving after 7 days,"oral, total dose 300 μg",6
same,Survivors,"oral, total dose 300 μg",1
same,No. animals surviving after 7 days,"oral, total dose 3 mg",5
same,Survivors,"oral, total dose 3 mg",0
"CCC(C)=NNC(=N)N.O=[N+]([O-])O [1-(sec-butylideneamino)guanidine, nitrate]",No. animals surviving after 7 days,"oral, total dose 3 ng",0
same,Survivors,"oral, total dose 3 ng",0
same,No. animals surviving after 7 days,"oral, total dose 30 ng",1
same,Survivors,"oral, total dose 30 ng",0
same,No. animals surviving after 7 days,"oral, total dose 300 ng",3
same,Survivors,"oral, total dose 300 ng",2
same,No. animals surviving after 7 days,"oral, total dose 3 μg",0
same,Survivors,"oral, total dose 3 μg",0
same,No. animals surviving after 7 days,"oral, total dose 30 μg",2
same,Survivors,"oral, total dose 30 μg",2
same,No. animals surviving after 7 days,"oral, total dose 300 μg",0
same,Survivors,"oral, total dose 300 μg",0
"CN(C)N [1,1-dimethylhydrazine]",No. animals surviving after 6 days,"oral, total dose 30 pg",5
same,Survivors,"oral, total dose 30 pg",0
same,No. animals surviving after 6 days,"oral, total dose 300 pg",3
same,Survivors,"oral, total dose 300 pg",0
same,No. animals surviving after 6 days,"oral, total dose 3 ng",3
same,Survivors,"oral, total dose 3 ng",1
same,No. animals surviving after 6 days,"oral, total dose 30 ng",2
same,Survivors,"oral, total dose 30 ng",0
same,No. animals surviving after 6 days,"oral, total dose 300 ng",3
same,Survivors,"oral, total dose 300 ng",0
same,No. animals surviving after 6 days,"oral, total dose 3 μg",2
same,Survivors,"oral, total dose 3 μg",0
same,No. animals surviving after 6 days,"oral, total dose 30 μg",1
same,Survivors,"oral, total dose 30 μg",1
same,No. animals surviving after 6 days,"oral, total dose 300 μg",3
same,Survivors,"oral, total dose 300 μg",0
same,No. animals surviving after 6 days,"oral, total dose 3 mg",2
same,Survivors,"oral, total dose 3 mg",0
"CNNC [1,2-dimethylhydrazine, dihydrochloride]",No. animals surviving after 6 days,"oral, total dose 30 pg",6
same,Survivors,"oral, total dose 30 pg",1
same,No. animals surviving after 6 days,"oral, total dose 300 pg",2
same,Survivors,"oral, total dose 300 pg",0
same,No. animals surviving after 6 days,"oral, total dose 3 ng",3
same,Survivors,"oral, total dose 3 ng",0
same,No. animals surviving after 6 days,"oral, total dose 30 ng",3
same,Survivors,"oral, total dose 30 ng",1
same,No. animals surviving after 6 days,"oral, total dose 300 ng",5
same,Survivors,"oral, total dose 300 ng",0
same,No. animals surviving after 6 days,"oral, total dose 3 μg",3
same,Survivors,"oral, total dose 3 μg",0
same,No. animals surviving after 6 days,"oral, total dose 30 μg",4
same,Survivors,"oral, total dose 30 μg",0
same,No. animals surviving after 6 days,"oral, total dose 300 μg",6
same,Survivors,"oral, total dose 300 μg",0
same,No. animals surviving after 6 days,"oral, total dose 3 mg",3
same,Survivors,"oral, total dose 3 mg",0
"CCOC(=O)CC(C)=NNC(N)=S [acetoacetic acid, ethyl ester, thiosemicarbazone]",No. animals surviving after 5 days,"oral, total dose 30 pg",8
same,Survivors,"oral, total dose 30 pg",0
same,No. animals surviving after 5 days,"oral, total dose 300 pg",4
same,Survivors,"oral, total dose 300 pg",0
same,No. animals surviving after 5 days,"oral, total dose 3 ng",5
same,Survivors,"oral, total dose 3 ng",0
same,No. animals surviving after 5 days,"oral, total dose 30 ng",5
same,Survivors,"oral, total dose 30 ng",0
same,No. animals surviving after 5 days,"oral, total dose 300 ng",4
same,Survivors,"oral, total dose 300 ng",0
same,No. animals surviving after 5 days,"oral, total dose 3 μg",6
same,Survivors,"oral, total dose 3 μg",0
same,No. animals surviving after 5 days,"oral, total dose 30 μg",8
same,Survivors,"oral, total dose 30 μg",0
same,No. animals surviving after 5 days,"oral, total dose 300 μg",7
same,Survivors,"oral, total dose 300 μg",0
same,No. animals surviving after 5 days,"oral, total dose 3 mg",5
same,Survivors,"oral, total dose 3 mg",0
"Cc1ccccc1NC(=S)NN=C1CCCC1 [cyclopentanone, 3-thio-4-o-tolylsemicarbazone]",No. animals surviving after 5 days,"oral, total dose 30 pg",6
same,Survivors,"oral, total dose 30 pg",0
same,No. animals surviving after 5 days,"oral, total dose 300 pg",9
same,Survivors,"oral, total dose 300 pg",0
same,No. animals surviving after 5 days,"oral, total dose 3 ng",9
same,Survivors,"oral, total dose 3 ng",0
same,No. animals surviving after 5 days,"oral, total dose 30 ng",9
same,No. animals surviving after 5 days,"oral, total dose 300 ng",6
same,Survivors,"oral, total dose 300 ng",0
same,No. animals surviving after 5 days,"oral, total dose 3 μg",6
same,Survivors,"oral, total dose 3 μg",0
same,Survivors,"oral, total dose 30 μg",0
same,No. animals surviving after 5 days,"oral, total dose 300 μg",9
same,Survivors,"oral, total dose 300 μg",0
same,No. animals surviving after 5 days,"oral, total dose 3 mg",8
same,Survivors,"oral, total dose 3 mg",0
"C=CCNC(=S)NN=C1Cc2ccccc2C1 [2-Indanone, 4-allylthiosemicarbazone]",No. animals surviving after 7 days,"oral, total dose 30 pg",4
same,Survivors,"oral, total dose 30 pg",0
same,No. animals surviving after 7 days,"oral, total dose 300 pg",7
same,Survivors,"oral, total dose 300 pg",0
same,No. animals surviving after 7 days,"oral, total dose 3 ng",4
same,Survivors,"oral, total dose 3 ng",0
same,No. animals surviving after 7 days,"oral, total dose 30 ng",6
same,Survivors,"oral, total dose 30 ng",0
same,No. animals surviving after 7 days,"oral, total dose 300 ng",6
same,Survivors,"oral, total dose 300 ng",0
same,No. animals surviving after 7 days,"oral, total dose 3 μg",2
same,Survivors,"oral, total dose 3 μg",0
same,No. animals surviving after 7 days,"oral, total dose 30 μg",6
same,Survivors,"oral, total dose 30 μg",0
same,No. animals surviving after 7 days,"oral, total dose 300 μg",2
same,Survivors,"oral, total dose 300 μg",0
same,No. animals surviving after 7 days,"oral, total dose 3 mg",4
same,Survivors,"oral, total dose 3 mg",1
N=C(N)NN [aminoguanidine],No. animals surviving after 7 days,"oral, total dose 300 pg",6
same,Survivors,"oral, total dose 300 pg",1
same,Survivors,"oral, total dose 3 ng",1
same,Survivors,"oral, total dose 30 ng",2
same,Survivors,"oral, total dose 300 ng",4
same,No. animals surviving after 7 days,"oral, total dose 3 μg",8
same,Survivors,"oral, total dose 3 μg",3
same,No. animals surviving after 7 days,"oral, total dose 30 μg",8
same,Survivors,"oral, total dose 30 μg",5
same,survival,"subcutaneous, one dose level",50%
same,No. animals surviving after 7 days,"subcutaneous, total dose 3 μg",6
same,Survivors,"subcutaneous, total dose 3 μg",2
same,Survivors,"subcutaneous, total dose 30 μg",2
same,No. animals surviving after 7 days,"subcutaneous, total dose .0003 μg",8
same,No. animals surviving after 7 days,[1],8
same,Survivors,[1],0
same,Survivors,"subcutaneous, total dose .03 μg",1
same,Survivors,"subcutaneous, total dose .3 μg",1
"NC(=S)NN=C1Cc2ccccc2C1 [2-indanone, thiosemicarbazone]",No. animals surviving after 5 days,"oral, total dose 30 pg",8
same,Survivors,"oral, total dose 30 pg",1
same,No. animals surviving after 5 days,"oral, total dose 300 pg",8
same,Survivors,"oral, total dose 300 pg",0
same,No. animals surviving after 5 days,"oral, total dose 3 ng",5
same,Survivors,"oral, total dose 3 ng",0
same,No. animals surviving after 5 days,"oral, total dose 30 ng",9
same,Survivors,"oral, total dose 30 ng",0
same,No. animals surviving after 5 days,"oral, total dose 300 ng",8
same,Survivors,"oral, total dose 300 ng",1
same,No. animals surviving after 5 days,"oral, total dose 3 μg",8
same,Survivors,"oral, total dose 3 μg",1
same,No. animals surviving after 5 days,"oral, total dose 30 μg",8
same,Survivors,"oral, total dose 30 μg",0
same,No. animals surviving after 5 days,"oral, total dose 300 μg",6
same,Survivors,"oral, total dose 300 μg",0
"O=C(CCNNC(=O)c1ccncc1)NCc1ccccc1 [Nialamide, nialamide, reference compound]",Survivors,"oral, total dose 400pg",1
same,Survivors,"oral, total dose 4ng",1
same,Survivors,"oral, total dose 40ng",0
same,Survivors,"oral, total dose 400ng",0
same,Survivors,"oral, total dose 4μg",0
same,Survivors,"oral, total dose 400 μg",2
same,Survivors,"oral, total dose 4 mg",1
"CCC(CC)=NNC(N)=S [3-pentanone, thiosemicarbazone]",No. animals surviving after 6 days,"oral, total dose 30 pg",2
same,Survivors,"oral, total dose 30 pg",0
same,No. animals surviving after 6 days,"oral, total dose 300 pg",1
same,Survivors,"oral, total dose 300 pg",0
same,No. animals surviving after 6 days,"oral, total dose 3 ng",3
same,Survivors,"oral, total dose 3 ng",0
same,No. animals surviving after 6 days,"oral, total dose 30 ng",0
same,Survivors,"oral, total dose 30 ng",0
same,No. animals surviving after 6 days,"oral, total dose 300 ng",3
same,Survivors,"oral, total dose 300 ng",0
same,No. animals surviving after 6 days,"oral, total dose 3 μg",6
same,Survivors,"oral, total dose 3 μg",1
same,No. animals surviving after 7 days,"oral, total dose 12 μg",1
same,Survivors,"oral, total dose 12 μg",0
same,No. animals surviving after 7 days,"oral, total dose 18 μg",1
same,Survivors,"oral, total dose 18 μg",1
same,No. animals surviving after 7 days,"oral, total dose 24 μg",0
same,Survivors,"oral, total dose 24 μg",0
same,No. animals surviving after 6 days,"oral, total dose 30 μg",7
same,Survivors,"oral, total dose 30 μg",0
same,No. animals surviving after 7 days,"oral, total dose 60 μg",1
same,Survivors,"oral, total dose 60 μg",0
same,No. animals surviving after 7 days,"oral, total dose 90 μg",3
same,Survivors,"oral, total dose 90 μg",0
same,No. animals surviving after 7 days,"oral, total dose 120 μg",1
same,Survivors,"oral, total dose 120 μg",1
same,No. animals surviving after 7 days,"oral, total dose 150 μg",2
same,Survivors,"oral, total dose 150 μg",1
same,No. animals surviving after 6 days,"oral, total dose 300 μg",4
same,Survivors,"oral, total dose 300 μg",0
"CC(C)=NNC(N)=S [acetone, thiosemicarbazone]",No. animals surviving after 6 days,"oral, total dose 30 pg",3
same,Survivors,"oral, total dose 30 pg",1
same,No. animals surviving after 6 days,"oral, total dose 300 pg",2
same,Survivors,"oral, total dose 300 pg",0
same,No. animals surviving after 6 days,"oral, total dose 3 ng",2
same,Survivors,"oral, total dose 3 ng",0
same,No. animals surviving after 6 days,"oral, total dose 30 ng",2
same,Survivors,"oral, total dose 30 ng",0
same,No. animals surviving after 6 days,"oral, total dose 300 ng",3
same,Survivors,"oral, total dose 300 ng",0
same,No. animals surviving after 6 days,"oral, total dose 3 μg",5
same,Survivors,"oral, total dose 3 μg",0
same,No. animals surviving after 6 days,"oral, total dose 30 μg",2
same,Survivors,"oral, total dose 30 μg",0
same,No. animals surviving after 6 days,"oral, total dose 300 μg",3
same,Survivors,"oral, total dose 300 μg",0
"CNN [Methylhydrazine, methylhydrazine]",No. animals surviving after 6 days,"oral, total dose 30 pg",2
same,Survivors,"oral, total dose 30 pg",1
same,No. animals surviving after 6 days,"oral, total dose 300 pg",3
same,Survivors,"oral, total dose 300 pg",0
same,No. animals surviving after 6 days,"oral, total dose 3 ng",3
same,Survivors,"oral, total dose 3 ng",1
same,No. animals surviving after 6 days,"oral, total dose 30 ng",4
same,Survivors,"oral, total dose 30 ng",1
same,No. animals surviving after 6 days,"oral, total dose 300 ng",1
same,Survivors,"oral, total dose 300 ng",0
same,No. animals surviving after 6 days,"oral, total dose 3 μg",3
same,Survivors,"oral, total dose 3 μg",0
same,No. animals surviving after 6 days,"oral, total dose 30 μg",3
same,Survivors,"oral, total dose 30 μg",1
same,No. animals surviving after 6 days,"oral, total dose 300 μg",1
same,Survivors,"oral, total dose 300 μg",0
same,Toxicity,"oral, total dose 3 mg",Toxic; also recorded: Toxic?
